The record followed here is patent US9504668B2 (priority 2013, dated 2016).

For orientation: ED50 means the dose that gives a 50% effect, or the effect in half of the subjects.

Common to all, as to experiment: animal or person
Holding throughout (assay type): in vivo

The test system of assay [1] is Male Sprague-Dawley rats.
For another assay, the system named is Mice. To be noted: Mus musculus, po, read-out: MES test ED50.
In assay [2] the test system is Male Sprague-Dawley rats. To be noted: Rattus norvegicus, iv, read-out: Intervention Protection %.

Regarding `COCO[C@@H](c1cccc(I)c1)[C@H](C)OC(N)=O` [Example 52, 1-(3-iodophenyl)-(S)-1-methoxymethoxypropyl-(S)-2-carbamate], the “Prevention Protection %” value with Male Sprague-Dawley rats [1] (rat, in vivo) was “^a20 (16.7%)”. In addition, the 50% effective dose (ED50) in the assay on Mice was determined as 24.7 mg/kg. Also, in the assay with Male Sprague-Dawley rats [2], the responders at 46 mg/kg stood at 100%.

Regarding `CO[C@@H](c1ccccc1I)[C@H](C)OC(N)=O` [Example 143, 1-(2-iodophenyl)-(S)-1-methoxypropyl-(S)-2-carbamate], the ED50 in the assay on Male Sprague-Dawley rats [1] (Rattus norvegicus, ip, read-out: Prevention ED50) stood at 19.6 mg/kg; in the assay with Mice, 15.7 mg/kg. Moreover, in the assay with Male Sprague-Dawley rats [1] (rat, in vivo, ip), the “Prevention Peak Time” value is 1 h. Moreover, the responders at 23 mg/kg in the assay with Male Sprague-Dawley rats [2] turned out to be 66.7%.

`CO[C@@H](c1ccccc1F)[C@H](C)OC(N)=O` [Example 135, 1-(2-fluorophenyl)-(S)-1-methoxypropyl-(S)-2-carbamate]: the “Prevention Protection %” value with Male Sprague-Dawley rats [1] (rat, in vivo) is “^a20 (16.7%)”. Also, the median effective dose (ED50) in the assay on Mice turned out to be 12.5 mg/kg. The responders at 46 mg/kg in the assay on Male Sprague-Dawley rats [2] amounted to 100%.
